# Source: patent US20240335543A1, “IONIZABLE AMINE AND ESTER LIPIDS AND LIPID NANOPARTICLES” (Beam Therapeutics Inc., priority 2021, published 2024)
# Key:
# [1] = LNP hydrodynamic diameter and polydispersity index by dynamic light scattering (DLS); format: physicochemical; conditions: LNP with 47.5% Ionizable Lipid: 40% cholesterol: 2.5% PEG-2000 DMG: 10% DPSC, N/P 4-8
# Procedure: (§1) LNPs were prepared with 47.5% Ionizable Lipid (e.g., a compound provided herein): 40% cholesterol: 2.5% PEG-2000 DMG: 10% DPSC and an N/P ratio range of 4-8. LNPs were formed by microfluidic mixing of the lipid and NA solutions using a Precision Nanosystems NanoAssemblr Spark or Benchtop series Instruments, according to the manufacturer's protocol. A ratio of aqueous to organic solvent of approximately 2:1 or 3:1 was maintained during mixing using differential flow rates. After mixing, LNPs were collected, diluted in phosphate buffer saline (PBS) or Tris-buffered saline (TBS) (approximately 1:1 v/v). Further buffer exchange was conducted using dialysis in PBS or TBS at 4° C. for 4 to 24 hours against a 20 kDa filter. After this initial dialysis, each individual LNP preparation was characterized via dynamic light scattering (DLS) to measure the size (e.g., diameter) and polydispersity. LNPs falling within specific diameter and polydispersity ranges were pooled, and further dialyzed against PBS or TBS at 4° C. for 1 to 4 hours against a 100 kDa dialysis cassette. After the second dialysis, LNPs were sterile filtered using 0.22 μm filter and stored at 4° C. for further use.
# LNP hydrodynamic diameter and polydispersity index (PDI) were measured using high throughput dynamic light scattering (DLS) (Stunner, Unchained Labs). LNPs were diluted 1×TBS or PBS to an appropriate concentration and analyzed.
# [2] = RNA encapsulation efficiency of LNPs by Ribogreen assay; format: physicochemical; conditions: LNP with 47.5% Ionizable Lipid: 40% cholesterol: 2.5% PEG-2000 DMG: 10% DPSC, N/P 4-8
# Procedure: as §1
# RNA concentration and encapsulation efficiency were determined by Ribogreen assay (BioTek Synergy LX plate reader).
# ALAS1 target site = assay: In vivo base editing in liver with LNPs carrying adenine base editor mRNA and sgRNA, targeted deep sequencing; conditions: Balb/C mice, tail vein, 0.15 mg/kg total RNA, ABE mRNA + ALAS1 sgRNA 1:1, tissues four to six days post-dose
# Procedure: Exemplary LNP preparations were selected to determine each preparation's ability to perform base editing in a Balb/C mouse model as described herein.
# Lipid nanoparticle components were dissolved in 100% ethanol at specified lipid component molar ratios. mRNA encoding an adenine base editor and a chemically-modified sgRNA was dissolved at a mass ratio of 1:1 in 50 mM citrate, pH 4.0, resulting in a concentration of NA cargo of approximately 0.1 mg/mL.
# LNP preparations were formulated with molar ratios of 47.5% Ionizable Lipid: 40% Cholesterol: 2.5% PEG2000-DMG: 10% DSPC total lipid to NA mass ratio of 6 to 12.
# LNP preparations were formed by microfluidic mixing of the lipid and NA solutions using a Precision Nanosystems NanoAssemblr Ignite series Instruments, according to the manufacturer's protocol.
# A 3:1 ratio of aqueous to organic solvent was maintained during mixing using differential flow rates. After mixing, LNP preparations were collected, diluted in TBS (approximately 7:1 v/v), and further buffer exchange was conducted using dialysis in TBS at 4° C. for 8 to 24 hours against a 20 kDa filter. After this initial dialysis, each individual LNP preparation was characterized via dynamic light scattering (DLS) to measure size and polydispersity. pKa of a subpopulation of LNP preparations was measured via TNS assay.
# After dialysis, LNP preparations were sterile filtered using 0.22 micron sterile filter and stored at 4° C. for further use. In some embodiments, LNP preparations were concentrated using 100 kDa Amicon filters per manufacturer's protocol.
# Male Balb/C mice aged approximately 8-12 weeks were used in the experiments described herein. […]
# Age-matched mice were also used to administer vehicle (1×TBS) via tail vein injection as a control. […] Base editing was determined by performing targeted deep sequencing analysis at the ALAS1 target site using extracted genomic DNA. […] Library size and concentration was confirmed by Fragment Analyzer (Agilent) and analyzed for whole genome sequencing using an Illumina HiSeq.
# Lung = assay: Barcoded LNP biodistribution screen, fold above input (FAI) in lung; format: in vivo; conditions: pooled LNP IV tail vein, mice, 4 hours post-dose
# Procedure: (§2) Male and female mice aged approximately 8-12 weeks were used for studies described by the present Example. Each mouse was temporarily restrained and pooled LNP was administered IV via tail vein injection in up to five animals per experiment. Age-matched mice was also used to administer vehicle (1×TBS) via tail vein injection in up to three animals per experiment. Additional routes of administration can also be conducted including intracerebral ventricular (ICV), intracisterna manga (ICM), intrathecal (IT), intramuscular (IM), nebulization, intranasal (IN), subcutaneous (SC), intraarticular, and intradermal (ID). At 4 hours post-dose, tissues including liver, spleen, bone marrow, testes, gastrocnemius, quadricep, lung, heart, kidney, and pancreas may be collected for analysis. […]
# (§3) To screen for preferential LNP delivery to a target tissues, the relative abundance of each barcode in one or more target tissues was measured and compared to the relative abundance of each barcode to its corresponding relative input abundance to determine fold above input (FAI) for each barcode. […]
# (§4) The FAI is the normalized relative abundance of a barcode in a selected sample as compared to its frequency in the input. […] The FAI value of the barcode was calculated by normalizing the relative abundance in the barcode sequence counts in the isolated samples to its relative abundance in the administration input. […]
# Spleen = assay: Barcoded LNP biodistribution screen, fold above input (FAI) in spleen; format: in vivo; conditions: pooled LNP IV tail vein, mice, 4 hours post-dose
# Procedure: as §2, with “(ID).” for “(ID). At 4 hours post-dose, tissues including liver, spleen, bone marrow, testes, gastrocnemius, quadricep, lung, heart, kidney, and pancreas may be collected for analysis.”
# Liver, kidney, lung, and muscle (e.g. skeletal and cardiac) tissues may be mechanically, and then enzymatically digested using a mixture of proteinases, then passed through a 70 μm filter to generate single cell suspensions. […] Tissues were treated with ACK buffer to lyse red blood cells, and then stained with fluorescently-labeled antibodies for flow cytometry and fluorescence-activated cell sorting (FACS). […]
# as §3
# Liver = assay: Barcoded LNP biodistribution screen, fold above input (FAI) in liver; format: in vivo; conditions: pooled LNP IV tail vein, mice, 4 hours post-dose
# Procedure: as §2, §3, §4
SMILES,Mean Diameter (nm) [1] [nm],Mean PDI [1],Mean Encapsulation Efficiency (%) [2] [%],base editing observed in liver (ALAS1 target site) [%],FAI (Lung) (Lung; Table 3 screening experiment),FAI (Lung) (Lung; Table 4 screening experiment),FAI (Spleen) (Spleen; Table 3 screening experiment),FAI (Spleen) (Spleen; Table 4 screening experiment),FAI (Liver) (Liver; Table 3 screening experiment),FAI (Liver) (Liver; Table 4 screening experiment)
"CCCCCCC(CC)OC(=O)CCCCCCCCN(CCCCCCCCC(=O)OC(CC)CCCCCC)CCCNC(=O)c1cccc(C(=O)NCCCN(CCCCCCCCC(=O)OC(CC)CCCCCC)CCCCCCCCC(=O)OC(CC)CCCCCC)c1 (stereo not drawn) [Compound 7-1, tetra(nonan-3-yl) 9,9′,9″,9′″-(((isophthaloylbis(azanediyl))bis(propane-3,1-diyl))bis(azanetriyl))tetranonanoate]",82.4,0.16,76.7,28.2,–,–,–,–,–,–
"CCCCCCC(CC)OC(=O)CCCCCCCCN(CCCCCCCCC(=O)OC(CC)CCCCCC)CCCNC(=O)c1ccc(C(=O)NCCCN(CCCCCCCCC(=O)OC(CC)CCCCCC)CCCCCCCCC(=O)OC(CC)CCCCCC)cc1 (stereo not drawn) [Compound 7-2, tetra(nonan-3-yl) 9,9′,9″,9′″-(((terephthaloylbis(azanediyl))bis(propane-3,1-diyl))bis(azanetriyl))tetranonanoate]",110.0,0.08,58.4,3.1,–,–,–,–,–,–
"CCCCCCC(CC)OC(=O)CCCCCCCCN(CCCCCCCCC(=O)OC(CC)CCCCCC)CCCNC(=O)c1cc(C(=O)NCCCN(CCCCCCCCC(=O)OC(CC)CCCCCC)CCCCCCCCC(=O)OC(CC)CCCCCC)cc(C(=O)OCCN(C)C)c1 (stereo not drawn) [Compound 7-5, tetra(nonan-3-yl) 9,9′,9″,9′-((((5-((2-(dimethylamino)ethoxy)carbonyl)isophthaloyl)bis(azanediyl))bis(propane-3,1-diyl))bis(azanetriyl))tetranonanoate]",124.6,0.10,94.7,5.2,–,–,–,–,–,–
"CCCCCC(CCCCC)CCOC(=O)CCCCCCCOC(=O)c1cc(C(=O)OCCCCCCCC(=O)OCCC(CCCCC)CCCCC)cc(C(=O)OCCCN(C)C)c1 [Compound 7-7, 1-(3-(dimethylamino)propyl) 3,5-bis(8-oxo-8-((3-pentyloctyl)oxy)octyl) benzene-1,3,5-tricarboxylate]",86.5,0.09,75.3,–,–,–,–,–,–,–
"CCCCCC(CCCCC)CCOC(=O)CCCCCCCOC(=O)c1cc(C(=O)OCCCCCCCC(=O)OCCC(CCCCC)CCCCC)cc(C(=O)OCCCCN(C)C)c1 [Compound 7-9, 1-(4-(dimethylamino)butyl) 3,5-bis(8-oxo-8-((3-pentyloctyl)oxy)octyl) benzene-1,3,5-tricarboxylate]",90.8,0.11,84.9,–,–,–,–,–,–,–
"CCCCC/C=C\C/C=C\CCCCCCCCC(CCCCCCCC/C=C\C/C=C\CCCCC)OC(=O)CCCN(C)C [MC3, (6Z,9Z,28Z,31Z)-heptatriaconta-6,9,28,31-tetraen-19-yl 4-(dimethylamino) butanoate]",–,–,–,–,0.65,1.26,0.45,1.71,0.31,1.30
